Measurements: patent US10105351B2, “Neurofibromatoses therapeutic agents and screening for same” (University of Central Florida Research Foundation, Inc., priority 2012, dated 2018)
Where a name gives a salt, the structure may show the parent alone.

What was measured:
[1] = test system: merlin-null Schwann cells; test: Orthogonal ATP-based luminescence cell viability assay (CellTiter-GLO); settings: 10 uM; average of two assays with one cell line at P18-23
[2] = test system: normal nf2^flox2/flox2 Schwann cells; test: Selectivity assay: cell viability of normal Schwann cells; settings: 10 uM; one assay with mouse nf2^flox2/flox2 Schwann cells at P2
Description: (§1) The compounds were tested at 10 uM in 8 replicates in a 384-well format using the live cell protease assay (CellTiter-Fluor) and the orthogonal ATP-based assay (CellTiter-GLO) (both from Promega). We tested the compounds on two Merlin-null Schwann cell lines, L1, (used in the LOPAC screen) at passages ranging from 13-23 and an independently-derived line, L2, tested at passage 20 and 21.

[3] = test system: merlin-null Schwann cells; test: Primary assay: live cell protease assay (CellTiter-Fluor), cell viability; settings: 10 uM; 8 replicates, 384 well plate; mean and SD of four assays, two independently derived merlin-null Schwann cell lines at P13-23
Description: Cell viability was measured with the CellTiter-Fluor Live Protease Assay (Promega). […] One way ANOVA Kurskal-Wallis test was used with a Dunn's Multiple Comparison post-test.
as §1

Row | SMILES | Orthogonal Assay Average of two, cell viability [1] | Selectivity Assay, cell viability [2] | Primary Assay (m +/− sd), cell viability [3]
1 | CCn1cnc2c(Nc3cccc(Cl)c3)nc(N[C@@H]3CCCC[C@@H]3N)nc21 (relative stereo) [CGP-74514A hydrochloride, N2-(cis-2-Aminocyclohexyl)-N6-(3-chlorophenyl)-9-ethyl-9H-purine-2,6-diamine hydrochloride] | 16.1 % of DMSO Control | 33 % of DMSO Control | 35 +/− 7 % of DMSO Control
2 | CC[n+]1c(C=CC=C2N(C)c3ccccc3C2(C)C)sc2ccccc21.[I-] [AC-93253 iodide, 2-[3-(1,3-Dihydro-1,3,3-trimethyl-2H-indol-2-ylidene)-1-propenyl]-3-ethyl-benzothiazolium iodide] | 24.3 % of DMSO Control | 28 % of DMSO Control | 41 +/− 6 % of DMSO Control
3 | O=C1NC(=O)/C(=C/c2ccc3nccnc3c2)S1 [AS605240, 5-(6-Quinoxalinylmethylene)-2,4-thiazolidinedione] | 40.1 % of DMSO Control | 78 % of DMSO Control | 35 +/− 2 % of DMSO Control
4 | O=C1Nc2cc(Br)ccc2C1C1Nc2ccccc2C1NO (centres unmarked) [BIO, (2′Z,3′E)-6-Bromoindirubin-3′-oxime] | 0.8 % of DMSO Control | 31 % of DMSO Control | 20 +/− 8 % of DMSO Control
5 | C[C@@]12C(=O)OC(=O)[C@]1(C)[C@H]1CC[C@@H]2O1 [Cantharidin, cantharidin] | 35.2 % of DMSO Control | 78 % of DMSO Control | 34 +/− 14 % of DMSO Control
6 | CC(C)(C)c1ccc(C(=O)CCCN2CCC(OC(c3ccccc3)c3ccccc3)CC2)cc1 [Ebastine, ebastine] | 0.1 % of DMSO Control | – | 17 +/− 3 % of DMSO Control
7 | OCCN1CCN(CCCN2c3ccccc3Sc3ccc(C(F)(F)F)cc32)CC1 [Fluphenazine dihydrochloride] | 45.6 % of DMSO Control | 43 % of DMSO Control | 71 +/− 6 % of DMSO Control
8 | O=C1Nc2ccc(I)cc2C1=Cc1cc(Br)c(O)c(Br)c1 [GW5074, 3-(3,5-Dibromo-4-hydroxybenzyliden)-5-iodo-1,3-dihydroindol-2-one] | 36.4 % of DMSO Control | 31 % of DMSO Control | 24 +/− 7 % of DMSO Control
9 | CC(C)(Sc1ccc(CCN(CCCCC2CCCCC2)C(=O)NC2CCCCC2)cc1)C(=O)O [GW7647, (2-(4-(2-(1-Cyclohexanebutyl)-3-cyclohexylureido)ethyl)-phenyl-thio)-2-methyl-propionic acid] | 6.3 % of DMSO Control | 32 % of DMSO Control | 20 +/− 5 % of DMSO Control
10 | O=C(CCCN1CCC(O)(c2ccc(Cl)cc2)CC1)c1ccc(F)cc1 [Haloperidol] | 88.8 % of DMSO Control | 78 % of DMSO Control | 96 +/− 4 % of DMSO Control
11 | CC(C)c1ccc2c(c1)c(SC(C)(C)C)c(CC(C)(C)C(=O)O)n2Cc1ccc(Cl)cc1 [L663,536, 3-[3-tert-Butylthio-1-(4-chlorobenzyl)-5-isopropyl-1H-indol-2-yl]-2,2-dimethylpropionic acid, sodium salt hydrate] | 0.1 % of DMSO Control | 31 % of DMSO Control | 16 +/− 3 % of DMSO Control
12 | COc1ccc(Br)cc1S(=O)(=O)NC(=O)/C=C/c1ccccc1Cc1ccc2ccccc2c1 [L-798106, (2E)-N-[(5-bromo-2-methoxyphenyl)sulfonyl]-3-[2-(2-naphthalenylmethyl)phenyl]-2-propenamide] | 37.6 % of DMSO Control | 33 % of DMSO Control | 35 +/− 13 % of DMSO Control
13 | CC[C@H](C)C(=O)O[C@H]1CCC=C2C=C[C@H](C)[C@H](CC[C@@H]3C[C@@H](O)CC(=O)O3)[C@H]21 [Mevastatin, mevastatin] | 85.1 % of DMSO Control | 74 % of DMSO Control | 81 +/− 11 % of DMSO Control
14 | COCC(=O)O[C@]1(CCN(C)CCCc2nc3ccccc3[nH]2)CCc2cc(F)ccc2[C@@H]1C(C)C [Mibefradil dihydrochloride hydrate, mibefradil] | 53.3 % of DMSO Control | 32 % of DMSO Control | 67 +/− 9 % of DMSO Control
15 | O=C1c2c(O)ccc(O)c2C(=O)c2c(NCCNCCO)ccc(NCCNCCO)c21 [Mitoxantrone dihydrochloride, 1,4-Dihydroxy-5,8-bis[[2-[(2-hydroxyethyl)amino]ethyl]amino]-9,10-anthracenedione] | 36.8 % of DMSO Control | 34 % of DMSO Control | 39 +/− 6 % of DMSO Control
16 | CCN(CC)CCCCNc1ncc2cc(-c3c(Cl)cccc3Cl)c(NC(=O)NC(C)(C)C)nc2n1 [PD-161570, 1-tert-Butyl-3-[6-(2,6-dichlorophenyl)-2-[[4-(diethylamino)butyl]amino]pyrido[2,3-d]pyrimidin-7-yl]urea] | 62.4 % of DMSO Control | 47 % of DMSO Control | 60 +/− 12 % of DMSO Control
17 | O=C(O)c1ccc2ccccc2c1O.OCc1cc(C(O)CNCCCCCCOCCCCc2ccccc2)ccc1O (centres unmarked) [Salmeterol xinafoate, salmeterol xinafoate] | 73.7 % of DMSO Control | 57 % of DMSO Control | 57 +/− 9 % of DMSO Control
18 | O=C(CCCN1CCC2(CC1)C(=O)NCN2c1ccccc1)c1ccc(F)cc1 [Spiroperidol] | 84.3 % of DMSO Control | 85 % of DMSO Control | 90 +/− 6 % of DMSO Control
19 | CSc1ccc2c(c1)N(CCC1CCCCN1C)c1ccccc1S2 (centres unmarked) [Thioridazine hydrochloride, thioridazine] | 67.9 % of DMSO Control | 33 % of DMSO Control | 71 +/− 13 % of DMSO Control
20 | CN1CCN(CCCN2c3ccccc3Sc3ccc(C(F)(F)F)cc32)CC1 [Trifluoperazine dihydrochloride, trifluoperazine] | 47 % of DMSO Control | 47 % of DMSO Control | 78 +/− 6 % of DMSO Control
